One compound from ChEMBL document CHEMBL2311326, “Synthesis and evaluation of novel sulfenamides as novel anti Methicillin-resistant Staphylococcus aureus agents” (2013) can be followed below.

Holding throughout (type): functional
The subject of test [1] is Staphylococcus aureus. Nature of the test: Antimicrobial activity against methicillin-resistant Staphylococcus aureus.
The subject of test [2] is Staphylococcus aureus. Briefly: Antimicrobial activity against methicillin-resistant Staphylococcus aureus isolate 309-8.
In test [3] the test system is Staphylococcus aureus. Nature of the test: Antimicrobial activity against methicillin-resistant Staphylococcus aureus isolate 309-4.
The test system of test [4] is Staphylococcus aureus. Nature of the test: Antimicrobial activity against methicillin-resistant Staphylococcus aureus isolate 309-7.
Test [5] concerns Staphylococcus aureus. Nature of the test: Antimicrobial activity against methicillin-sensitive Staphylococcus aureus isolate 309-1.
Test [6] relates to Staphylococcus aureus. Nature of the test: Antimicrobial activity against methicillin-resistant Staphylococcus aureus isolate Chaoyang.
Test [7] deals with Staphylococcus aureus. Briefly: Antimicrobial activity against Staphylococcus aureus ATCC 6538.
In a further test the test system is Bacillus subtilis. Briefly: Antimicrobial activity against Bacillus subtilis ATCC 6633.
In test [8] the test system is Staphylococcus aureus. Briefly: Antimicrobial activity against methicillin-resistant Staphylococcus aureus isolate 6-42.
The test system of a further test is Pseudomonas aeruginosa. Nature of the test: Antimicrobial activity against Pseudomonas aeruginosa PAO1.

In brackets after ≈: the same amount, converted by molar mass.

What is called MIC is the smallest concentration in the dilution series that meets the test's criterion for growth inhibition. In general, MBC refers to the smallest concentration meeting the test's criterion for killing. A lower MBC goes with greater bactericidal potency. Consider `COC(=O)[C@H](Cc1c[nH]c2ccccc12)NSc1ccccc1[N+](=O)[O-]`, for which the MIC worked out at 3.13 µg/mL (≈ 8.43 µM) in the test on Staphylococcus aureus [1]; 25 µg/mL (≈ 67.3 µM) against Staphylococcus aureus [2]; 25 µg/mL (≈ 67.3 µM) in the test with Staphylococcus aureus [3]; 12.5 µg/mL (≈ 33.7 µM) against Staphylococcus aureus [4]; 25 µg/mL (≈ 67.3 µM) against Staphylococcus aureus [5]; 3.13 µg/mL (≈ 8.43 µM) in the test on Staphylococcus aureus [6]. Besides, the MIC against Staphylococcus aureus [7] was 6.25 µg/mL (≈ 16.8 µM); against Bacillus subtilis, 12.5 µg/mL (≈ 33.7 µM); against Staphylococcus aureus [8], 3.13 µg/mL (≈ 8.43 µM); in the test on Pseudomonas aeruginosa, greater than 100 µg/mL. Moreover, the MBC in the test with Staphylococcus aureus [2], against Staphylococcus aureus [3], against Staphylococcus aureus [4], with Staphylococcus aureus [5], against Staphylococcus aureus [6] and with Staphylococcus aureus [7] was greater than 100 µg/mL each time. In the test on Staphylococcus aureus [8], this compound registered an MBC greater than 100 µg/mL.
